In EPA's ToxValDB 9.5 (doi:10.2903/j.efsa.2009.178r):

Columns and labels:
Typhlodromus pyri = test: LR50; higher = less toxic; conditions: not reported; mortality
Aphidius rhopalosiphi = test: LR50; higher = less toxic; conditions: not reported; mortality
Apis mellifera = conditions: acute, mortality
Colinus virginianus = conditions: acute; oral; diet; mortality
Canidae = conditions: chronic; duration: 1 years; oral; Dog Other; histopathology: nonneoplastic
Daphnia magna = conditions: chronic/long-term; duration: 21 days; mobility
Procambarus sp. = conditions: acute; duration: 96 hours; mortality
Tagia sp. = conditions: acute; mortality

Question: Which results are given for `COC(=O)c1ccccc1CS(=O)(=O)NC(=O)Nc1nc(OC)cc(OC)n1` [Bensulfuron-methyl]?
Answer: LR50 (Typhlodromus pyri): > 600 g/ha; LR50 (Aphidius rhopalosiphi): > 600 g/ha; LC50 (Oncorhynchus mykiss; acute, duration: 96 hours, mortality): > 66 µg/mL; NOEC (Oncorhynchus mykiss; chronic/long-term, duration: 90 days, other): 1.5 mg/L; LD50 (Anas platyrhynchos; acute, oral, unspecified, M/F, mortality): ≥ 2510 mg/kg; NOEC (Anas platyrhynchos; reproductive): 83 mg/kg-day; LC50 (Anas platyrhynchos; short-term, oral, feed, mortality): > 1690 mg/kg-day; LD50 (Apis mellifera; dermal): > 100 µg/piece; LD50 (Apis mellifera; oral, unspecified): > 51.4 µg/piece; LC50 (Colinus virginianus): > 1680 mg/kg-day; LD50 (Rattus norvegicus; acute, oral, mortality): ≥ 5000 mg/kg; NOEL (Rattus norvegicus; reproduction developmental, reproduction): 20.9 mg/kg-day; NOAEL (Canidae): 19.9 mg/kg-day; NOEC (Daphnia magna): 12 mg/L; LC50 (Procambarus sp.): > 71 µg/mL; LC50 (Tagia sp.): > 1000 mg/kg
